Key:
Assay type in all cases: cell-based, human
LPS-stimulated AM [1] = assay: TNF-α release, cytotoxic bioassay with WEHI 164 clone 13 cells, AM; conditions: for TNF-α release by LPS-stimulated AM: preincubated 24 hour with cytokine (IL-9, IL-4 20 ng/ml, IFN-γ 200 U/ml) or medium, LPS 1 μg/ml 20 h, without LPS 4.6±2.1
Description: (§1) PBM and AM obtained as described infra (1×10^6 PBM, 0.5×10^6 AM) were preincubated for 24 hour with cytokines, IL-4, IL-9 (20 ng/ml) and IFN-γ (200 U/ml) before the stimulation by LPS (1 μg/ml) for 20 h. Supernatants were harvested and frozen at −20° C. until cytokine titration. TNF-α release was determined in supernatants by a cytotoxic bioassay using WEHI 164 clone 13 target cells (Espevik and Nissen-Meyer, J. Immunol. Methods, 95:99-105 (1986) (incorporated herein by reference)), while IL-8 was quantitated in the same supernatants by ELISA. FIG. 5 depicts the effects of IL-9, IL-4, and IFN-γ on the release of TNFα (A) and IL-8 (B) by LPS-stimulated PBM and AM. Data are means±SEM (n=3). *P<0.001 compared with unstimulated cells; **P<0.05 compared with cells preincubated with medium.
(§2) Cells (1×10^6 PBM or 0.5×10^6 AM/well) were distributed in 24-well plates (Falcon), preincubated in cRPMI for 24 hours at 37° C., 5% CO2 with cytokines (IL-9, IL-4 (20 ng/ml) and IFN-γ (200 U/ml)) and stimulated for 20 hours with 1 μg/ml LPS without removing cytokines. Supernatants were harvested and frozen at −20° C. until cytokine titration. Release of TNF-α was quantified by a cytotoxicity bioassay using WEHI 164 cells clone 13, as previously described (Espevik and Nissen-Meyer, J. Immunol. Methods, 95:99-105 (1986) incorporated herein by reference), using rhTNF-α from Boehringer as a standard. IL-8, IL-10 and TGF-β1 concentrations were determined by ELISA. A kit from CLB (Amsterdam, The Netherlands) was used for IL-10 quantitation, following the manufacturer's protocol. A kit from Biosource allowed to determine TGF-β1 after the release from its latent complexes by a treatment of supernatants with ethanol acid (‘acid-treated supernatants’); TGF-P 1 was also assessed in crude supernatants (‘untreated supernatants’). […] The reaction was then developed in 0.03% v/v H2O2 substrate and 0.42 mM 3,3′,5,5′-tetramethylbenzidine as chromogen in 100 mM sodium acetate/citric acid buffer (pH 4.9), stopped with 2 M H2SO4, and read in a plate spectrometer at 450 nm. […]

LPS-stimulated PBM [2] = assay: TNF-α release, cytotoxic bioassay with WEHI 164 clone 13 cells, PBM; conditions: preincubated 24 hour with cytokine (IL-9, IL-4 20 ng/ml, IFN-γ 200 U/ml) or medium, LPS 1 μg/ml 20 h; without LPS 10.2±4.1
Description: as §1, §2

LPS-stimulated PBM [3] = assay: IL-10 release by ELISA, PBM; conditions: for IL-10 release by LPS-stimulated PBM: preincubated 24 hour, LPS 20 h
Description: (§3) FIG. 6 depicts the effect of IL-9, IL-4 and IFN-γ on the release of IL-10 (A) and TGF-β1 (B) by LPS-stimulated PBM and AM cultured under the same conditions as described in FIG. 5 Example I. D. TGF-β1 was determined by ELISA in crude supernatants (untreated supernatants) and in ethanol-acid (acid-treated) supernatants, using a kit from Biosource for determining TGF-β1 release from its latent complexes. An ELISA kit from CLB (Amsterdam, The Netherlands) was used to determine IL-10 following the manufacturer's protocol. […] Data are means±SEM (n=3). *P<0.05 compared with unstimulated cells; **P<0.05 compared with cells preincubated with medium.
as §2, with “supernatants’). To assay for IL-8, 96-well plates were coated overnight at 4° C. with 4 μg/ml anti-hIL-8 mAb (Sigma, clone 6217.11) in 100 mM sodium carbonate buffer (pH 9.6).” for “supernatants’).”

LPS-stimulated AM [4] = assay: IL-8 release by ELISA, AM; conditions: preincubated 24 hour, LPS 20 hour
Description: as §1, with “Data are means±SEM (n=3). *P<0.001 compared with unstimulated cells; **P<0.05 compared with cells preincubated with medium.” left out
(§4) Cells (1×10^6 PBM or 0.5×10^6 AM/well) were distributed in 24-well plates (Falcon), preincubated in cRPMI for 24 hours at 37° C., 5% CO2 with cytokines (IL-9, IL-4 (20 ng/ml) and IFN-γ (200 U/ml)) and stimulated for 20 hours with 1 μg/ml LPS without removing cytokines. […] Release of TNF-α was quantified by a cytotoxicity bioassay using WEHI 164 cells clone 13, as previously described (Espevik and Nissen-Meyer, J. Immunol. Methods, 95:99-105 (1986) incorporated herein by reference), using rhTNF-α from Boehringer as a standard. IL-8, IL-10 and TGF-β1 concentrations were determined by ELISA. A kit from CLB (Amsterdam, The Netherlands) was used for IL-10 quantitation, following the manufacturer's protocol. […]

LPS-stimulated AM [5] = assay: TGF-β1 release by ELISA, AM; conditions: acid-treated supernatants; preincubated 24 hour 20 ng/ml, LPS 20 h; medium-preincubated 109±23
Description: as §3, §4

Molecule: IL-4: Th2 cytokine interleukin-4 used as comparator, 20 ng/ml
- effect on TNF-α production in LPS-stimulated AM (LPS-stimulated AM [1]; preincubated 24 hour, LPS 20 h): No significant inhibition
- TNF-α release by LPS-stimulated PBM (LPS-stimulated PBM [2]): 72.5 ± 21.5 pg/mL
- IL-10 release by LPS-stimulated PBM (LPS-stimulated PBM [3]): inhibited

Molecule: IL-9: Human IL-9 purified from SF9 insect cell cultures infected with recombinant baculovirus
- TNF-α release by LPS-stimulated AM (LPS-stimulated AM [1]): 74.8 ± 10.2 pg/mL
- effect on IL-8 release by LPS-stimulated AM (LPS-stimulated AM [4]): no significant modulation
- production of TGF-β1 by LPS-stimulated AM (LPS-stimulated AM [5]): 366+21 pg/ml
- TNF-α release by LPS-stimulated PBM (LPS-stimulated PBM [2]): 84.2 ± 17.2 pg/mL
- LPS-induced IL-10 release by PBM (LPS-stimulated PBM [3]; preincubated 24 hour 20 ng/ml, LPS 1 μg/ml 20 h, medium-preincubated 217.8±25.8): 119.7 ± 8.7 pg/mL

B1: IFN-γ: Interferon gamma, primes mononuclear phagocytes, 200 U/ml (protein, UniProt P01579 24-161, looked up)
Interferon gamma: QDPYVKEAENLKKYFNAGHSDVADNGTLFLGILKNWKEESDRKIMQSQIVSFYFKLFKNFKDDQSIQKSVETIKEDMNVKFFNSNKKKRDDFEKLTNYSVTDLNVQRKAIHELIQVMAELSPAAKTGKRKRSQMLFRG
- TNF-α release by LPS-stimulated AM (LPS-stimulated AM [1]): 145.2 ± 9.4 pg/mL
- effect on IL-8 release by LPS-stimulated AM (LPS-stimulated AM [4]): no significant modulation
- TNF-α release by LPS-stimulated PBM (LPS-stimulated PBM [2]): 289.8 ± 12.9 pg/mL
- IL-10 release by LPS-stimulated PBM (LPS-stimulated PBM [3]): decreased
